Measured values: the NIST ThermoML archive (doi:10.1021/je9007553)
Values joined by “and” are separate entries in the source; they are usually repeats but may differ in a detail not shown here. Equal values may be shown once.

Details: Crystal, Calculated from knudsen effusion weight loss

[Br][Al]([Br])[Br] [aluminum bromide]
Details | vapor or sublimation pressure
301 K | 0.00013 kPa
303 K | 0.00018 kPa
306 K | 0.00024 kPa
307 K | 0.00035 kPa and 0.00034 kPa
309 K | 0.00043 kPa and 0.00035 kPa
310 K | 0.00045 kPa
312 K | 0.00049 kPa and 0.00056 kPa and 0.00046 kPa
312.5 K | 0.00054 kPa
314 K | 0.00062 kPa
314.5 K | 0.00071 kPa
315 K | 0.00072 kPa and 0.00068 kPa
315.5 K | 0.00085 kPa
316 K | 0.00071 kPa
316.5 K | 0.00089 kPa
317 K | 0.00095 kPa and 0.00083 kPa
317.5 K | 0.00089 kPa
318 K | 0.00089 kPa
318.5 K | 0.00107 kPa and 0.00102 kPa and 0.00112 kPa
320 K | 0.00107 kPa and 0.00123 kPa
320.5 K | 0.00123 kPa
321 K | 0.00135 kPa
321.5 K | 0.00141 kPa
323 K | 0.00166 kPa [middle of 4 runs]
324 K | 0.0017 kPa and 0.00178 kPa
324.5 K | 0.00191 kPa
325 K | 0.00209 kPa
326 K | 0.00204 kPa and 0.00214 kPa
327 K | 0.0024 kPa and 0.00282 kPa
327.5 K | 0.00234 kPa
328 K | 0.00269 kPa and 0.00251 kPa
330 K | 0.00363 kPa and 0.00324 kPa
330.5 K | 0.00309 kPa
331 K | 0.00389 kPa
332.5 K | 0.00468 kPa
333 K | 0.00457 kPa and 0.00398 kPa
333.5 K | 0.00437 kPa
335 K | 0.00575 kPa
336 K | 0.00575 kPa and 0.00617 kPa and 0.00562 kPa
337 K | 0.00724 kPa
338 K | 0.00741 kPa and 0.00794 kPa
340 K | 0.00933 kPa and 0.00813 kPa
343 K | 0.01259 kPa
344 K | 0.01288 kPa
345 K | 0.01479 kPa
348 K | 0.0195 kPa
351 K | 0.02512 kPa

[I][Al]([I])[I] [aluminum iodide]
Details | vapor or sublimation pressure
359.5 K | 7e-05 kPa
361 K | 0.0001 kPa
364 K | 0.00014 kPa
365 K | 0.00019 kPa and 0.00014 kPa
366.5 K | 0.00017 kPa
367.5 K | 0.00019 kPa
368 K | 0.00019 kPa and 0.00025 kPa
368.5 K | 0.00025 kPa
369.5 K | 0.00025 kPa
371.5 K | 0.00027 kPa
372 K | 0.0003 kPa and 0.00034 kPa
372.5 K | 0.00034 kPa
374.5 K | 0.00049 kPa and 0.00039 kPa and 0.00036 kPa
375.5 K | 0.00044 kPa
376 K | 0.00042 kPa and 0.00049 kPa
377 K | 0.00059 kPa and 0.00049 kPa
378 K | 0.00054 kPa
378.5 K | 0.00059 kPa and 0.00063 kPa
380 K | 0.00068 kPa and 0.00071 kPa
380.5 K | 0.00083 kPa and 0.00078 kPa
381 K | 0.00078 kPa
382 K | 0.00083 kPa
383 K | 0.00093 kPa
383.5 K | 0.00087 kPa
385 K | 0.00126 kPa and 0.00102 kPa
385.5 K | 0.00112 kPa
387 K | 0.00135 kPa
388 K | 0.00135 kPa
389 K | 0.00186 kPa
390 K | 0.0017 kPa and 0.00182 kPa and 0.00174 kPa
391 K | 0.0017 kPa and 0.00209 kPa
393 K | 0.00245 kPa
393.5 K | 0.00214 kPa and 0.00234 kPa
394 K | 0.00257 kPa
395 K | 0.00251 kPa and 0.00282 kPa
396.5 K | 0.00295 kPa
397 K | 0.00324 kPa
397.5 K | 0.00363 kPa
398 K | 0.00347 kPa and 0.00339 kPa
399 K | 0.0038 kPa
399.5 K | 0.00407 kPa and 0.00417 kPa
400 K | 0.00417 kPa
401 K | 0.00437 kPa
402 K | 0.00537 kPa and 0.00501 kPa
403 K | 0.00525 kPa
403.5 K | 0.00562 kPa and 0.0055 kPa
404.5 K | 0.00562 kPa
405 K | 0.00603 kPa and 0.00661 kPa
406 K | 0.00759 kPa
407 K | 0.00759 kPa
408 K | 0.00776 kPa and 0.00794 kPa
408.5 K | 0.00871 kPa
409 K | 0.00933 kPa
409.5 K | 0.00832 kPa
411 K | 0.01047 kPa and 0.01023 kPa
412 K | 0.01175 kPa and 0.01096 kPa
413 K | 0.01288 kPa and 0.01148 kPa
414.5 K | 0.01413 kPa
415 K | 0.01479 kPa and 0.01445 kPa
416 K | 0.01549 kPa and 0.01585 kPa
417 K | 0.0166 kPa
417.5 K | 0.0182 kPa
419.5 K | 0.02188 kPa
